Consider one substance from patent US20150025019A1, “Method for Dosage Adjustment of Drugs that Prevent Elastic Fiber Breakdown” (priority 2013, published 2015).

Entries after “also recorded” stand apart in the source; their conditions may differ.

The nature of data set [1]: Clinical safety trial of hyaluronan aerosol in COPD patients: safety endpoints. It is filed as in vivo, human. Here is the method:
(§1) With this background, efforts continue to develop hyaluronan aerosol as a potential therapy for chronic obstructive pulmonary disease (COPD) related to alpha-1 antitrypsin deficiency (AATD) and not related to AATD. As part of that development this clinical safety trial was conducted in 11 COPD patients, 8 of whom received hyaluronan and 3 received placebo. The study protocol was conducted under IND number 70299. The primary aim of the study was to establish safety and to evaluate biomarker activity with respect to body and lung elastin degradation.
Eleven patients were recruited from 2 Centers: 9 patients from Research Associates in Tucson Ariz. and 2 patients from St. Luke's-Roosevelt Hospital Pulmonary Disease Center in New York. All patients fulfilled the diagnostic criteria of COPD with GOLD grades 2 and 3 with moderate airway obstruction (FEV1 above 40% of predicted) and at least a ten pack-year history of cigarette smoking. No patients were actively smoking at the time of recruitment and smoking cessation had occurred over one year prior to the study in all patients. Six patients were male […]. All were Caucasian. Three patients received placebo. Eight patients received hyaluronan CTX-100.
(§2) Each patient self-administered 0.01% hyaluronan from a vialed volume of 3 ml by aerosol from a compressor-delivered Pari nebulizer, morning and night for 14 days. The primary endpoints to assess safety were adverse events, oxygen saturation, spirometry, lung volumes, physical examination, vital signs, electrocardiogram and laboratory evaluations (CBC, serum chemistries and urinalysis). Additionally, desmosine and isodesmosine concentrations in sputum, plasma and urine were measured to assess a possible effect on elastin degradation (44, 45)

Data set [2] deals with elastin fibers. The note with it: in vitro; cited from earlier work.
The conditions of data set [3]: therapy in cystic fibrosis; cited from earlier work.
In data set [4] the test system is emphysema induced by elastase enzymes. The following applies: animals; aerosol; cited from earlier work.
For data set [5], the system named is elastin degradation. The data set can be described thus: Desmosine and isodesmosine concentrations in sputum, plasma and urine of COPD patients in the clinical trial. The note with it: 2 weeks of hyaluronan aerosol; for Levels of desmosine and isodesmosine in sputum: all 6 patients who provided sputum samples. Format: in vivo, human. Here is the method: as §1, §2
Sputum samples collected from patients with emphysema and other inflammatory lung diseases are chemically degraded to separate the component amino acids of elastic fibers and other proteins. This procedure may involve hydrolyzing the sample with an acid such as HCl or a base such as NaOH, according to procedures well known to the art. The resulting hydrolysate is then measured for total elastin-specific amino acids, desmosine and isodesmosine, using a variety of procedures, including liquid chromatography or immunoassay, ultraviolet spectroscopy, fluorescence spectroscopy, mass spectrometry, or other spectroscopic techniques well-known to the art.
Desmosine and isodesmosine content of the sputum sample is then normalized to one or more parameters, such as total protein, albumin, or free amino acids, according to procedures well known to the art. The final value is expressed as total desmosine/isodesmosine per unit volume, protein, albumin, amino acids or other relevant parameter. Results obtained from the same patient over time may be used to determine variations in the amount of lung elastic fiber injury.

For data set [6], the system named is pulmonary emphysema induced by tobacco smoke. The following applies: mice exposed to tobacco smoke over a 6-month period; cited from earlier work.
Data set [7] deals with elastic fiber breakdown. As to the kind of experiment: Illustrative examples of titrating aerosolized hyaluronan by sputum desmosine and isodesmosine level. Format: in vivo, human. Here is the method:
Examples of the use of the invention to titrate treatment with aerosolized hyaluronan are given below:
1) A patient with pulmonary emphysema is found to have an abnormally high level of sputum desmosine and isodesmosine (20 nanograms/gram protein compared to a normal level of less than 5 nanograms/g protein), and begins treatment with a dose of 0.1% hyaluronan that is inhaled for 20 minutes once daily in the morning. After 1 month, the sputum desmosine and isodesmosine level is measured and found to be 10 nanograms/g of protein in the sputum, which is more than twice the upper limit of normal. The patient is then switched to a twice daily inhalation for 20 minutes in the morning and evening. Two weeks later, the patient's sputum desmosine and isodesmosine level has fallen to 1 nanogram/g of protein, which is within the normal range. Their treatment is therefore left unchanged and sputum desmosine and isodesmsoine levels are measured at monthly intervals to ensure that the drug remains effective in preventing elastic fiber breakdown.
2) A patient with a history of smoking is tested for sputum desmosine and isodesmosine levels. They are found to have a mildly elevated level of 6 nanograms/g protein, and is placed on low dose hyaluronan, involving a single daily 20 minute inhalation of 0.05% hyaluronan. Two weeks later, their sputum desmosine and isodesmosine level is 1 nanogram/g protein, which is within the normal range. Based on this finding, their treatment is lowered to a 20 minute inhalation of hyaluronan every other day. Two weeks later, their sputum desmosine and isodesmsoine level has risen to 6 nanograms/g protein, which is above the upper limit of normal. Their treatment regimen is therefore returned to a 20 minute inhalation every day. Two weeks later, their sputum desmosine and isodesmosine level has fallen to 1 nanogram/g protein. Their treatment needs no further modification, and sputum desmosine and isodesmosine levels are measured at monthly intervals to ensure that the drug remains effective in preventing elastic fiber breakdown.

Data set [8] deals with lung inflammation in a cystic fibrosis model. The note with it: cystic fibrosis model in mice; cited from earlier work.
Setting [9] is: listed as aerosolized hyaluronan.

As for hyaluronan, the Adverse events entry in data set [1] (0.01% hyaluronan, 3 ml by aerosol, morning and night for 14 days) is “mild to moderate”. Besides, in data set [1] (2 weeks of administration), the “Effect on EKG” value is given as “no significant effect”. Further, the “Effect on routine laboratory procedures” value in data set [1] (2 weeks of administration) is given as “no significant effect”. In data set [1] (2 weeks of administration), the “Effect on spirometric indices” value was “no significant effect”. Also, in data set [2], the “Elastase degradation of elastin fibers” value was “block elastase degradation of elastin fibers in vitro”. The “Tolerability of hypertonic saline” value in data set [3] is on record as “improve tolerability of hypertonic saline”. In addition, the “Severity of emphysema induced by elastase enzymes” value in data set [4] is recorded as “decrease the severity of emphysema induced by elastase enzymes”. Besides, the “Blood levels of desmosine and isodesmosine” value is given as “significant reduction” in data set [5] and “statistically significant decline” in data set [5] (setting [9]). In addition, the “Urine levels of desmosine and isodesmosine” value in data set [5] is “significant reduction”; in data set [5] (setting [9]), “statistically significant decline”. The “Levels of desmosine and isodesmosine in sputum” value was “statistically significant reduction; also recorded: Reductions” in data set [5] and “statistically significant decline” in data set [5] (setting [9]). Moreover, the “Pulmonary emphysema induced by tobacco smoke” value in data set [6] is recorded as “decrease the pulmonary emphysema induced in mice exposed to tobacco smoke”. In addition, the “Sputum desmosine and isodesmosine level” value in data set [7] (patient with history of smoking, start 6, single daily 20 minute inhalation of 0.05% hyaluronan, two weeks later) was 1 nanogram/g protein; in data set [7] (patient with pulmonary emphysema, start 20, 0.1% hyaluronan inhaled 20 minutes once daily, after 1 month), 10 nanograms/g of protein; in data set [7] (same patient, 0.1% hyaluronan, twice daily 20 minute inhalation, two weeks later), 1 nanogram/g of protein; in data set [7] (same patient, 20 minute inhalation every other day, two weeks later), 6 nanograms/g protein; in data set [7] (same patient, returned to 20 minute inhalation every day, two weeks later), 1 nanogram/g protein. Moreover, in data set [8], the Lung inflammation entry is recorded as “reduce lung inflammation in a cystic fibrosis model in mice”.
